{"source": "patent US7247294B1", "about": "“Skin lightening agents, compositions and methods” (Conopco, Inc., priority 2006, dated 2007)", "tested_on": "Melanoderm cultures", "assay": "Solvable Melanin Assay on Melanoderm cultures (3-D skin model)", "format": "cell-based", "conditions": "Melanoderm cultures fed every other day for 2 weeks, controls DMSO 1.292, untreated 1.259", "experimental": "This experiment was carried out using Melanoderm cultures. Luminescence was measured using a chromameter to assay the degree of melanization of a 3-D skin model.\nMethod for Melanoderm Cultures\nMelanoderm cultures were obtained from MatTek Corporation, Ashland, Mass. The Melanoderm was maintained according to the manufacturer's instructions. The basal media used for the maintenance of the Melanoderm cultures was DMEM supplemented with unspecified quantities of Epidermal growth factor, Insulin, Hydrocortisone, and proprietary epidermal differentiation compounds, in addition to anti-fungal and antibiotics.\nFor the long term maintenance of the Melanoderms, the basal media was supplemented with both bFGF and a-MSH, compounds which are stimulators of melanocyte growth and melanogenesis. The cultures were fed every other day for a total of 2 weeks—fresh active preparations, prepared in DMSO or culture media, were also applied to the Melanoderms when feeding was performed. Each treatment condition was done in duplicate and digital photographs were taken of the Melanoderm cultures to assess overall pigmentation. As well, microscopic images of the Melanoderms were done to assess the cell viability of the keratinocytes and melanocytes. For further evidence that the treatments were/not cytotoxic, an LDH assay (Promega, Madison, Wis.) was performed on the supernatants from 24 hour post-treatment cultures.\nTo prepare tissues for assay:\nAfter treatment, tissues are usually frozen until completion of the experiment. Thaw tissues, a few at a time and place in D-PBS to remove excess phenol red from the culture medium and residual test article. Remove a single tissue from the insert. Blot dry and place in 1.7 ml. microfuge tube. Repeat for all samples. Add 250 ul Solvable™ (Tissue and Gel Solubilizer 0.5 M—Packard BioScience Co. Catalogue No. 6NE9100 (NEF910)). Close the tube and make sure that the tissue is completely submerged. Incubate at 60° C. overnight along with standards. In the morning, vortex the samples. Sometimes thick tissues will require additional time to complete the solution process. To prepare standard: Dissolve Melanin (Sigma cat. M 8631) in Solvable at 1 mg/ml. The solution may be warmed gently for 15 minutes at 37° C. Store solution in dark. To prepare standard curve: Prepare dilutions from the standard containing 0 ug to 250 ug of melanin in a total of 250 ul Solvable. Incubate dilutions along with samples. To read assay: Cool samples and standards. Centrifuge at 13,000 rpm for 5 minutes to pellet. Fill microwell plate (C-96) with 200 ul each of samples and standards. There is some foaming of samples when pipetted. Blow gently across the samples to break bubbles prior to reading the plate. Read plate at […]."}
{"molecule": "O=c1oc2cc(O)ccc2cc1-c1ccccc1", "note": "[7-hydroxy-3-phenylcoumarin]", "values": [{"measurement": "OD = 490 nm (melanin content)", "setting": "25 uM", "result": 1.674}, {"measurement": "OD = 490 nm (melanin content)", "setting": "50 uM", "result": 1.339}, {"measurement": "OD = 490 nm (melanin content)", "setting": "75 uM", "result": 0.849}, {"measurement": "OD = 490 nm (melanin content)", "setting": "100 uM", "result": 0.293}]}
